# Experimental data as given in US6576622B1, “Drug combination for the treatment of viral diseases” (University of Medicine & Dentistry of New Jersey, priority 1995, dated 2003).
# Experiments:
# [1] = HPLC analysis of phosphorylated AZT metabolites in clones incubated with 3H-AZT; assay type: in vitro ADME
# Method: Cell lines were incubated with ^3H-thymidine or ^3H-AZT for 4 hours. Dried methanol extracts of the clones were redissolved in 60 μof distilled water and centrifuged to remove undissolved material. Twenty microliters of the sample was injected and separated on a 10×100 mm Rainin Hydropore anion exchange column. The nucleosides were eluted from the column with a linear gradient of potassium phosphate (5 mM to 1 M, pH4.0) at a flow rate of 1 ml/min. The samples were collected (0.5 ml), mixed with 5 ml Packard scintillation fluid, and quantitated using a liquid scintillation counter. Phosphorylated derivatives of thymidine and AZT were identified with authentic standards.
# Pool sizes were determined by incubation of cells with ^3H-AZT for 4 hours followed by cellular extraction and HPLC. The numbers are expressed as pmoles/10^6 cells. The numbers in parentheses represent the percentage of total radioactive species in that pool.
# [2] = tested on: HIV-LacZ; assay type: cell-based; settings: for cross resistance of cell lines “persistently resistant” to AZT to other nucleoside analogs: d4T at 50 μM
# [3] = tested on: recombinant HIV, recombinant MLV, or replication-competent HIV; assay type: cell-based; settings: Hela-T4, MLV-neo; for No. of persistently resistant colonies: AZT 10 uM, DDI 50 uM, DDC 10 uM, D4T 50 uM, resistant/tested; for Frequency: frequency of persistently resistant colonies
# Excerpt: The presence of a selectable marker gene in the recombinant HIV allowed the isolation of cells infected by the recombinant viruses in the presence of d4T. These cells were characterized by infection with both additional recombinant viruses and by replication-competent viruses.
# (§1) Table 6. Colony formation and persistent resistance after Hela-T4 cell infection with MLV-neo virus in the presence and absence of various antiviral agents.
# [4] = tested on: MLV-neo; experiment: MLV-neo colony formation in the presence of antiviral agents; assay type: cell-based, Moloney Leukemia virus; settings: Hela-T4, AZT 10 uM, DDI 50 uM, DDC 10 uM, D4T 50 uM, control 9050
# Method: Production of recombinant HIV-gpt has been described elsewhere (26). The amphotropic cell line PA317 was transfected with the recombinant murine retrovirus pLXSN (36) and was used as the source of the recombinant MLV-neo virus. Stock preparations of HIV-1IIIB were harvested from H9 cells by the “shake off method” (13). Stock virus infectivity was determined by end-point dilution in MT-2 cells (32). Virus induced cytopathic effect was scored 7 days post-infection and the TCID50 was calculated with the Reed and Muench equation (33).
# To confirm this high rate of infection in the absence of genetic drug resistance, we used several other recombinant viruses and host cells. […] A high rate of infection of Jurkat cells in the presence of d4T has also been seen.
# Table 5. HIV-gpt produced in COS cells by transfection with plasmids (plasmid derived) is compared with HIV-gpt produced by, rescue from H9/HIV-gpt cell line after infection with HIV-IIIB and cells infected with MLV-neo.
# as §1
# [5] = tested on: HIV-gpt; experiment: HIV-gpt colony formation after infection of HeLa-T4 cells in the presence of antiretroviral agents; assay type: cell-based; settings: HeLa-T4; plasmid derived HIV-gpt (COS cells); AZT 10 μM, DDI 50 μM, D4T 50 μM; no drug control 8800
# [6] = S1 (sensitive) cell line, 3H-AZT for 4 hours, HPLC
# [7] = R116 (“persistently resistant”) cell line, 3H-AZT for 4 hours, HPLC
"concentration in cells [1, 6]","percentage of total radioactive species in that pool [1, 6]","concentration in cells ([1]; human, 4 h)","percentage of total radioactive species in that pool ([1]; human, 4 h)",SMILES,cross resistance of cell lines “persistently resistant” to AZT to other nucleoside analogs [2],No. of persistently resistant colonies [3],Frequency [3],No. of colonies [4],other results
0.0116 pmoles/10^6 cells,6.9%,0.0193 pmoles/10^6 cells,9.6%,"Cc1cn([C@H]2C[C@H](N=[N+]=[N-])[C@@H](COP(=O)(O)OP(=O)(O)O)O2)c(=O)[nH]c1=O [AZTDP, 3′-azido-3′-deoxythymidine diphosphate]",–,–,–,–,–
0.0158 pmoles/10^6 cells,9.3%,0.0083 pmoles/10^6 cells,4.2%,"Cc1cn([C@H]2C[C@H](N=[N+]=[N-])[C@@H](CO[P@](=O)(O)O[P@](=O)(O)OP(=O)(O)O)O2)c(=O)[nH]c1=O [AZTTP, 3′-azido-3′-deoxythymidine triphosphate]",–,–,–,–,reduction in AZTTP in R116 cells compared to S1 cells ([1]; 3H-AZT incubation): ~2 fold
–,–,–,–,Nc1ccn([C@H]2CC[C@@H](CO)O2)c(=O)n1 [DDC],None of the “persistently resistant” cell lines were cross “resistant”,2/17,2.2 × 10^−4,17,–
–,–,–,–,O=c1[nH]cnc2c1ncn2[C@H]1CC[C@@H](CO)O1 [DDI],None of the “persistently resistant” cell lines were cross “resistant”,4/19,4.4 × 10^−4,19,"Number of “persistently resistance” colonies ([2]; colonies from HIV-gpt infection of HeLa-T4 in presence of drug, resistant/tested): 2/16; Frequency ([2]; frequency of persistently resistant colonies, HeLa-T4, plasmid derived HIV-gpt): 2.3 × 10^−4; Number of colonies [5]: 16"

SMILES,"concentration in cells [1, 6]","percentage of total radioactive species in that pool [1, 6]","concentration in cells ([1]; human, 4 h)","percentage of total radioactive species in that pool ([1]; human, 4 h)",cross resistance of cell lines “persistently resistant” to AZT to other nucleoside analogs [2],No. of persistently resistant colonies [3],Frequency [3],No. of colonies [4],other results
"Cc1cn([C@H]2C[C@H](N=[N+]=[N-])[C@@H](COP(=O)(O)O)O2)c(=O)[nH]c1=O [AZTMP, 3′-azido-3′-deoxythymidine monophosphate]",0.1212 pmoles/10^6 cells,71.6%,–,–,–,–,–,–,"concentration in cells [1, 7]: 0.1575 pmoles/10^6 cells; percentage of total radioactive species in that pool [1, 7]: 78.6%"
